“And” between values parts separate entries of the source, which are not always exact repeats. Equal entries are not always repeated.
Tests used:
[1] = 298.15 K; 101.33 kPa; Liquid
[2] = excess molar enthalpy (molar enthalpy of mixing); xn = mol fraction of the nth substance listed; details: 298.15 K, 101 kPa, Liquid, Flow calorimetry

C=CCCCC [hex-1-ene]
Details	mass density [kg/m3]
[1]	668.762

CCCOCCC [dipropyl ether] + C=CCCCC
[2]
Details	excess molar enthalpy [kcal/mol]
x1 = 0.0529	0.00158
x1 = 0.1001	0.00289
x1 = 0.15	0.00394
x1 = 0.2001	0.0048
x1 = 0.25	0.00545
x1 = 0.3002	0.00595
x1 = 0.3499	0.00632
x1 = 0.4001	0.00654
x1 = 0.4501	0.00671
x1 = 0.5001	0.00669
x1 = 0.55	0.00661
x1 = 0.5998	0.00641
x1 = 0.6499	0.00609
x1 = 0.6996	0.0057
x1 = 0.75	0.00515
x1 = 0.8003	0.0045
x1 = 0.85	0.00368
x1 = 0.9	0.00271
x1 = 0.95	0.00146

CCCOCCC [dipropyl ether]
Details	mass density [kg/m3]
[1]	741.997

CCCOCCC [dipropyl ether] + CCCCOCCCC
[2]
Details	excess molar enthalpy [kcal/mol]
x1 = 0.05	0.000533
x1 = 0.1	0.00102
x1 = 0.15	0.0014
x1 = 0.2001	0.00175
x1 = 0.25	0.00205
x1 = 0.3	0.00229
x1 = 0.35	0.00246
x1 = 0.3998	0.00261
x1 = 0.4497	0.00275
x1 = 0.4998	0.00283
x1 = 0.5004	0.00283
x1 = 0.55	0.00284
x1 = 0.6001	0.00281
x1 = 0.65	0.00271
x1 = 0.6999	0.00253
x1 = 0.75	0.00228
x1 = 0.8	0.00196
x1 = 0.8503	0.00159
x1 = 0.9	0.00111
x1 = 0.95	0.000612

CCCOCCC [dipropyl ether] + C1CCOC1
[2]
Details	excess molar enthalpy
x1 = 0.05	0.0125 kcal/mol
x1 = 0.1	0.0232 kcal/mol
x1 = 0.1501	0.0325 kcal/mol
x1 = 0.2	0.0402 kcal/mol
x1 = 0.2498	0.0468 kcal/mol
x1 = 0.2998	0.0518 kcal/mol
x1 = 0.3503	0.0556 kcal/mol
x1 = 0.3998	0.058 kcal/mol
x1 = 0.45	0.0591 kcal/mol
x1 = 0.4998	0.0594 kcal/mol and 0.0593 kcal/mol
x1 = 0.5499	0.0585 kcal/mol
x1 = 0.5999	0.0565 kcal/mol
x1 = 0.6502	0.0535 kcal/mol
x1 = 0.7003	0.0493 kcal/mol
x1 = 0.7499	0.0441 kcal/mol
x1 = 0.7999	0.0381 kcal/mol
x1 = 0.85	0.0305 kcal/mol
x1 = 0.9	0.0216 kcal/mol
x1 = 0.95	0.0115 kcal/mol

C1CCOC1 [tetrahydrofuran]
Details	mass density [kg/m3]
[1]	882.078
